Source: patent US20150126465A1, “PROCESS FOR PRODUCING DERIVATIVES OF PYROSTEGIA VENUSTA, DERIVATIVES OF PYROSTEGIA VENUSTA, PHARMACEUTICAL COMPOSITIONS AND ITS USES” (priority 2011, published 2015)
Read-outs that look alike come from different tables or passages of the source.

Key:
Assay type in all cases: cell-based
Candida glabrata ATCC = assay: MIC/CFM against Candida sp. strains; conditions: Nakaseomyces glabratus; Table 14, Candida glabrata ATCC
[1] = test system: Trichophyton menthagrophyton ATCC 9533; assay: MIC by microdilution, filamentous fungi (CLSI M38-A); conditions: Table 13, Trichophyton menthagrophyton ATCC 9533, 7 days, 28° C.
Experimental: (§1) Pure substances termed P1 and P2 previously dissolved in 20% DMSO, were diluted in RPMI medium, with final concentrations of 96 μg.mL-1. […] Cultures of filamentous fungi described below were inoculated in Agar-Batata Dextrose medium and inoculated for 7 days, at 28° C. Colonies of cultures inoculated for 7 days in an oven at 28° C. were shrouded with 0.85% saline solution, scraped and then transferred to conical tubes. After resting for 5 minutes, the supernatant was transferred to new conical tubes for subsequent quantification in spectrophotometer, at 530 nm, with the transmittance adjustment of 80-82% for A. niger and 70% for other microorganisms. After adjustment, there was a 1:50 dilution in RPM. The determination of Minimum Inhibitory Concentration was performed after 7 days, at 28° C. After the incubation period, aliquots of 96-well plates were transferred to Petri plates with Potato Dextrose Agar, to determine the Minimum Fungicidal Concentration. Plates were inoculated for more 7 days, at 28° C.

[2] = test system: Microsporum canis ATCC 32903; assay: as above; conditions: Table 13, Microsporum canis ATCC 32903, 7 days, 28° C.
Experimental: as §1

[3] = test system: Phomopsis longicolla (soy isolate); assay: as above; conditions: Table 13, Phomopsis longicolla- soy, 7 days, 28° C.
Experimental: as §1

C. Albicans USP 2 = assay: MIC/CFM against Candida sp. strains; conditions: Table 14, C. Albicans USP 2
[4] = test system: Candida albicans ATCC 10231; assay: MIC/CFM by microdilution (CLSI M27-A2); conditions: Candida albicans, ATCC10231, read-out: MIC
[5] = test system: Candida albicans OF-M7-19; assay: MIC/CFM by microdilution (CLSI M27-A2)
Experimental: (§2) Pure substances termed P1 and P2 previously dissolved in 20% DMSO, were diluted in RPMI medium, with final concentrations of 96 μg.mL-1. […] The same was also tested individually, diluted in RPMI medium, with initial concentration of 1 μL.mL-1. […] Cultures of Candida sp. were prepared and standardized in […] saline solution at 0.85%. For inoculums standardization, a spectrophotometer equipment was used, with wavelength at 530 nm and absorbance adjustment between 0.130 and 0.150, having as white the saline solution free of inoculum or any other contaminant, corresponding to concentrations of 10^6 CFU/mL. In this condition the inoculum “mother” was diluted 50 times and from this inoculum “child” the dilution was performed 20 times to obtain a standard inoculum in 10^3 cells per well. […] To aid in the growth view, were added to the wells dye 50 μL 2,3,5-triphenyltetrazolium chloride (TTC) at 5 mg.mL “1, being performed the readings after 4 hours of incubation. Prior to the addition of dye, aliquots of 96-well plate were transferred to Petri with Agar-Sabouraud Dextrose to determine the Minimum Fungicidal Concentration. Plates were incubated for 24 hours at 35° C.

[6] = test system: Candida albicans OF-M3-20; assay: MIC/CFM by microdilution (CLSI M27-A2)
Experimental: as §2

Candida albicans USP 1 = assay: MIC/CFM by microdilution (CLSI M27-A2)
Experimental: as §2

[7] = test system: Candida parapsilosis ATCC 22019; assay: MIC/CFM by microdilution (CLSI M27-A2)
Candida krusei USP 2223 = assay: MIC by microdilution (CLSI M27-A2)
[8] = test system: Candida tropicalis USP B3; assay: MIC by microdilution (CLSI M27-A2)
[9] = test system: Candida parapsilosis USP 1933; assay: MIC/CFM by microdilution (CLSI M27-A2)
[10] = test system: Candida guilhermondii USP; assay: MIC/CFM by microdilution (CLSI M27-A2)
[11] = test system: Candida albicans USP 1565; assay: MIC by microdilution (CLSI M27-A2)
Candida krusei ATCC 6258 [12] = assay: MIC/CFM by microdilution (CLSI M27-A2)
[13] = test system: Candida tropicalis USP 1658; assay: MIC by microdilution (CLSI M27-A2)
[14] = test system: Trichophyton rubrum ATCC MYA-3108; assay: MIC by microdilution, filamentous fungi (CLSI M38-A); conditions: Table 11, Trichophyton rubrum ATCC MYA-3108
Candida krusei ATCC 6258 [15] = assay: Diffusion in Agar, halo of inhibition; parameters: unit not given here; conditions: 20 μL per hole, 48 hours at 37° C., controls 80 μg · mL^−1
Experimental: (§3) Cultures of yeasts described below were inoculated in Agar-Sabouraud Dextrose medium and inoculated for 24 hours, at 35° C. Cultures of Candida sp. were prepared and standardized in […] saline solution at 0.85%. For inoculum standardization a spectrophotometer equipment was used with wavelength at 530 nm and absorbance adjustment between 0.130 and 0.150, having as white the saline solution free of inoculum or any other contaminant, corresponding to concentrations of 10^6 CFU/mL. In Petri plates (150×15 mm), were distributed RPMI medium with 0.8% Agar. To these plates, it was added 1 mL of the microorganism suspension in the concentration of 10^6 CFU/mL. After inundation, the suspension excess was removed with the aid of a pipette. With the plate surface already dry, hole of approximately 6.0 mm were made, adding to each hole 20 μL of the samples and control. The plates were then incubated for 48 hours at 37° C., when halo of inhibitions were measured.

[16] = test system: Candida parapsilosis ATCC 22019; assay: Diffusion in Agar, halo of inhibition; parameters: unit not given here; conditions: 20 μL per hole, 48 hours at 37° C., controls 80 μg · mL^−1
Experimental: as §3

[17] = test system: Candida tropicalis USP B3; assay: Diffusion in Agar, halo of inhibition; parameters: unit not given here; conditions: 20 μL per hole, 48 hours at 37° C., controls 80 μg · mL^−1
Experimental: as §3

[18] = test system: Candida guilhermondii USP; assay: Diffusion in Agar, halo of inhibition; parameters: unit not given here; conditions: Candida guilhemondii USP; 20 μL per hole, 48 hours at 37° C.; controls 80 μg · mL^−1
Experimental: as §3

[19] = test system: Candida albicans ATCC 10231; assay: Diffusion in Agar, halo of inhibition; parameters: unit not given here; conditions: 20 μL per hole, 48 hours at 37° C., controls 80 μg · mL^−1
Experimental: as §3

C[C@@H]1O[C@@H](O[C@@H]2[C@@H](O)[C@H](OCCc3ccc(O)c(O)c3)O[C@H](CO)[C@H]2OC(=O)/C=C/c2ccc(O)c(O)c2)[C@H](O)[C@H](O)[C@H]1O [Fraction P2, verbascoside]
3 µg/mL: MIC ([4]; Table 12, C. albicans ATCC 10231, 48 h, 35° C.)
0.75 µg/mL: MIC (Candida glabrata ATCC) | MIC ([5]; Candida albicans, OFM719, Table 14, C. Albicans OF M7-19, read-out: MIC) | MIC (Candida krusei USP 2223; Pichia kudriavzevii, USP2223, Table 12, C. krusei USP 2223, 48 h, 35° C., read-out: MIC) | MIC ([9]; Lodderomyces parapsilosis, USP1933, Table 12, C. parapsilosis USP 1933, 48 h, 35° C., read-out: MIC) | MIC ([10]; Table 14, Candida guilhermondi USPATCC, read-out: MIC)
1.5 µg/mL: MIC (C. Albicans USP 2) | MIC ([4]; Table 14, C. Albicans ATCC 10231) | MIC ([6]; Candida albicans, OFM320, Table 14, C. Albicans OF M3-20, read-out: MIC) | MIC (Candida albicans USP 1; Candida albicans, USP1, Table 14, C. Albicans USP 1, read-out: MIC) | MIC ([7]; Lodderomyces parapsilosis, ATCC22019, Table 14, C. parapsilosis ATCC 22019, read-out: MIC) | MIC (Candida krusei USP 2223; Pichia kudriavzevii, USP2223, Table 14, C. krusei USP 2223, read-out: MIC) | MIC ([8]; Candida tropicalis, USPB3, Table 14, C. Tropicalis UPS B3, read-out: MIC) | MIC ([9]; Lodderomyces parapsilosis, USP1933, Table 14, C. parapsilosis USP 1933 ATCC, read-out: MIC) | MIC (Candida krusei ATCC 6258 [12]; Pichia kudriavzevii, ATCC6258, Table 14, C. krusei ATCC, read-out: MIC) | MIC ([13]; Candida tropicalis, USP1658, Table 12, C. tropicalis USP 1658, 48 h, 35° C., read-out: MIC)
0.375 µg/mL: MIC ([5]; Candida albicans, OFM719, Table 12, C. albicans OF M7-19, 48 h, 35° C., read-out: MIC) | MIC ([6]; Candida albicans, OFM320, Table 12, C. albicans OF M3-20, 48 h, 35° C., read-out: MIC) | MIC (Candida albicans USP 1; Candida albicans, USP1, Table 12, C. albicans USP 1, 48 h, 35° C., read-out: MIC) | MIC ([7]; Lodderomyces parapsilosis, ATCC22019, Table 12, C. parapsilosis ATCC 22019, 48 h, 35° C., read-out: MIC) | MIC ([10]; Candida, Table 12, C. guilhermondii USP, 48 h, 35° C., read-out: MIC) | MIC ([11]; Candida albicans, USP1565, Table 12, C. albicans USP 1565, 48 h, 35° C., read-out: MIC) | MIC (Candida krusei ATCC 6258 [12]; Pichia kudriavzevii, ATCC6258, Table 12, C. krusei ATCC 6258, 48 h, 35° C., read-out: MIC)
48 µg/mL: MIC ([1]; ATCC9533, 168 h, read-out: MIC)
16 µg/mL: MIC ([3]; Diaporthe longicolla, 168 h, read-out: MIC)
12 µg/mL: MIC ([2]; ATCC32903, 168 h, read-out: MIC)

Nistatina
1.2: Halo of inhibition (Candida krusei ATCC 6258 [15])
1.5: Halo of inhibition [19]
1.1: Halo of inhibition [18]
0: Halo of inhibition [17]
6.125 µg/mL: MIC ([13]; Table 12, C. tropicalis USP 1658, 48 h, 35° C.)
1.6: Halo of inhibition [16]
6.25 µg/mL: MIC (Candida albicans USP 1; Table 12, C. albicans USP 1, 48 h, 35° C.) | MIC ([7]; Table 12, C. parapsilosis ATCC 22019, 48 h, 35° C.) | MIC (Candida krusei USP 2223; Table 11, C. krusei ATCC 2223) | MIC (Candida krusei USP 2223; Table 12, C. krusei USP 2223, 48 h, 35° C.) | MIC ([8]; Table 11, C. Tropicalis USP B3) | MIC ([9]; Table 11, C. parapsilosis USP 1933) | MIC ([10]; Table 12, C. guilhermondii USP, 48 h, 35° C.) | MIC ([11]; Table 11, C. Albicans USP 1565) | MIC ([11]; Table 12, C. albicans USP 1565, 48 h, 35° C.) | MIC (Candida krusei ATCC 6258 [12]; Table 11, C. krusei ATCC 6258) | MIC (Candida krusei ATCC 6258 [12]; Table 12, C. krusei ATCC 6258, 48 h, 35° C.) | MIC ([13]; Table 11, C. Tropicalis USP 1658)
3.125 µg/mL: MIC [14] | MIC [3] | MIC ([10]; Table 11, C. guilhermondii USP)
12.5 µg/mL: MIC [1] | MIC [2] | MIC ([5]; Table 12, C. albicans OF M7-19, 48 h, 35° C.) | MIC ([6]; Table 12, C. albicans OF M3-20, 48 h, 35° C.) | MIC ([9]; Table 12, C. parapsilosis USP 1933, 48 h, 35° C.)
